Series [1] deals with farnesyl protein transferase (Homo sapiens, UniProt P49354+P49356). The experiment in a line: FPT IC50 (inhibition of farnesyl protein transferase, in vitro enzyme assay, per WO 95/10516). It is filed as biochemical. Particulars: for IC50: in vitro enzyme assay. The procedure:
(§1) FPT IC50 (inhibition of farnesyl protein transferase, in vitro enzyme assay) was determined following the assay procedures described in WO 95/10516, published Apr. 20, 1995. GGPT IC50 (inhibition of geranylgeranyl protein transferase, in vitro enzyme assay), COS Cell IC50 (Cell-Based Assay), Cell Mat Assay, and anti-tumor activity (in vivo anti-tumor studies) could be determined by the assay procedures described in WO 95/10516. The disclosure of WO 95/10516 is incorporated herein by reference thereto.

In series [2] the test system is COS Cell. The series is described as follows: COS Cell IC50 (Cell-Based Assay, per WO 95/10516). The procedure: as §1
Series [3] concerns Human tumor cells. The experiment in a line: Soft Agar Assay (anchorage-independent growth). It is filed as cell-based. As for the experimental part:
Anchorage-independent growth is a characteristic of tumorigenic cell lines. Human tumor cells can be suspended in growth medium containing 0.3% agarose and an indicated concentration of a farnesyl transferase inhibitor. The solution can be overlayed onto growth medium solidified with 0.6% agarose containing the same concentration of farnesyl transferase inhibitor as the top layer. After the top layer is solidified, plates can be incubated for 10-16 days at 37° C. under 5% CO2 to allow colony outgrowth. After incubation, the colonies can be stained by overlaying the agar with a solution of MTT (3-[4,5-dimethyl-thiazol-2-yl]-2,5-diphenyltetrazolium bromide, Thiazolyl blue) (1 mg/mL in PBS). Colonies can be counted and the IC50's can be determined.

Series [4] has as its target T1, human FPT (Homo sapiens, UniProt P49354+P49356).
T1 construct: made in house; host or cells: Baculovirus/Sf-9
The series is described as follows: FPT pM IC50 Assay. Type of series: biochemical. Particulars: 30 pM human FPT, biotin-CVLS substrate, 37° C., 1 hour. The procedure: The enzymatic reaction is performed in 50 mM Tris, 5 μM ZnCl2, 5 mM MgCl2, 0.01% Triton X-100, 5 mM dithiolthreitol (DTT), pH 7.7 (Buffer R) at 37° C. for 1 hour. The purified human FPT (>95% pure) was derived from a Baculovirus/Sf-9 expression system. The peptide substrate used was biotin-CVLS (SynPep Corp., Dublin, Calif.) and (1-^3H)-FPP (21.5 Ci/mmol) was obtained from New England Nuclear Life Science Products (Boston, Mass.). Compounds were initially dissolved to a final concentration of 4 mg/ml in 100% DMSO and then to 0.25 μg/ml in 100% DMSO. Subsequent dilutions of the compound were performed in Buffer R.
The enzymatic reaction is performed in a final volume of 100 μl. Reactions are carried out in a 96 well plate format. […] The reaction is stopped using 150 μl of the Stop Solution consisting of 1.3 mg/ml scintillation beads (strepavidin-coated scintillation proximity beads from Amersham (Arlington Heights, Ill.), 250 mM EDTA, pH 8.0 and 0.5% BSA. The radioactivity is measured after 20 minutes at room temperature.
Compounds are evaluated for their ability to inhibit the reaction by measuring the concentration-dependent percent inhibition of the reaction. […] The enzymatic activity was recorded by measuring the CPM/well using a Wallac 1204 Betaplate BS liquid scintillation counter. […]

Sequence of farnesyl protein transferase (P49356 whole entry, one chain of several): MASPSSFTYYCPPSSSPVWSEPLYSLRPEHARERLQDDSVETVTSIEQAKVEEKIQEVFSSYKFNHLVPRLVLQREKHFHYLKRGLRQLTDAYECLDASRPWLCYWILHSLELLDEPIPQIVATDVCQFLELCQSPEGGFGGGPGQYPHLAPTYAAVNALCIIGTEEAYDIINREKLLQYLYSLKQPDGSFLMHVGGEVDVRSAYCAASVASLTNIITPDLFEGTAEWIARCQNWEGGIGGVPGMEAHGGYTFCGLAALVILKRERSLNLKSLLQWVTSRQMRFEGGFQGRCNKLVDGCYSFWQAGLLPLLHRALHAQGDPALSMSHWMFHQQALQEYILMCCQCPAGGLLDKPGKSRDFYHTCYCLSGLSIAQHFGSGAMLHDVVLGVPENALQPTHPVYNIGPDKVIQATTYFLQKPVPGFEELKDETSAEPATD

For orientation: IC50 means the concentration that gives 50% inhibition. A lower IC50 goes with inhibition by little substance. `NC(=O)N1CCC(CC(=O)N2CCN(C3c4ccc(Cl)cc4CCc4cc(Br)c[n+]([O-])c43)CC2)CC1` (racemic) [Example 9, (±) 4-[2-[(3-Bromo-8-chloro-6,11-dihydro-5H-benzo[5,6]cyclohepta [1,2-b]pyridin-11-yl)-1-piperazinyl]-2-oxoethyl]-1-piperidinecarboxamide N1-oxide]: it took 0.023 µM to reach half-maximal inhibition in series [1] (IC50). Turning to `NC(=O)N1CCC(CC(=O)N2CCC(C3c4c(Br)cc(Cl)cc4CCc4cc(Br)c[n+]([O-])c43)CC2)CC1` (centres unmarked) [Compound 54.0], the FPT percent inhibition in series [1] (@150 nM) was 42%. Regarding `NC(=O)N1CCC(CC(=O)N2CCC([C@@H]3c4c(Br)cc(Cl)cc4CCc4cc(Br)c[n+]([O-])c43)CC2)CC1` [Example 2, (+)-4-[2-[4-(3,10-Dibromo-8-chloro-6,11-dihydro-5H-benzo [5,6]cyclohepta[1,2-b]pyridin-11(R)-YL)-1-piperidinyl]-2-oxoethyl]-1-piperidinecarboxamide N-oxide], the IC50 in series [1] was 0.0014 µM; in series [2] it was 0.009 µM; in series [3], 0.045 µM.

For the compound `O=C(Cc1cc[n+]([O-])cc1)N1CCC([C@@H]2c3c(Br)cc(Cl)cc3CCc3cc(Br)c[n+]([O-])c32)CC1` [Example 3], the results for the IC50 in series [1], in series [2] and in series [3] were 0.0007 µM, 0.0115 µM and 0.025 µM, respectively. Take `NC(=O)N1CCC(CC(=O)N2CCC([C@H]3c4ccc(Cl)c(Br)c4CCc4cc(Br)c[n+]([O-])c43)CC2)CC1` [Example 4]: in series [1], it took 0.018 µM to reach half-maximal inhibition (IC50). `O=C(Cc1cc[n+]([O-])cc1)N1CCC([C@H]2c3ccc(Cl)c(Br)c3CCc3cc(Br)c[n+]([O-])c32)CC1` [Example 5, (−)-4-(8-Chloro-3,7-Dibromo-6,11-Dihydro-5H-Benzo[5,6]Cyclohepta [1,2-b]Pyridin-11-yl)-1-(4-Pyridinylacetyl)Piperidine N1-Oxide, N4-Oxide] came in with an IC50 in series [1] of 0.028 µM. `O=C(Cc1cc[n+]([O-])cc1)N1CCC(C2c3ccc(Cl)cc3C=Cc3cc(Br)c[n+]([O-])c32)CC1` (centres unmarked) [Example 6, 4-(3-Bromo-8-Chloro-11H-Benzo[5.6]Cyclohepta[1,2-b]Pyridi-11-yl) -1-(4-Pyridinylacetyl)Piperidine N1-Oxide, N4-Oxide]: the IC50 in series [1] was 0.063 µM. Consider `O=C(Cc1cc[n+]([O-])cc1)N1CCN([C@@H]2c3ccc(Cl)cc3CCc3cc(Br)c[n+]([O-])c32)CC1` [Example 7], for which the IC50 in series [1] came to 0.0063 µM; in series [4], 440 pM; in series [2], 0.085 µM; in series [3], 0.183 µM. `O=C(Cc1cc[n+]([O-])cc1)N1CCN([C@H]2c3ccc(Cl)cc3CCc3cc(Br)c[n+]([O-])c32)CC1` [Example 8]: the FPT percent inhibition in series [1] (@ 170 (concentration unit not given)) came to 39% @ 170. As for `NC(=O)N1CCC(CC(=O)N2CCN([C@@H]3c4ccc(Cl)cc4CCc4cc(Br)c[n+]([O-])c43)CC2)CC1` [Example 10, (+) 4-[2-[(3-Bromo-8-chloro-6,11-dihydro-5H-benzo[5,6]cyclo-hepta [1,2-b]pyridin-11R-yl)-1-piperazinyl]-2-oxoethyl]-1-piperidinecarboxamide N1-oxide], the IC50 in series [1] came to 0.012 µM. In the case of `NC(=O)N1CCC(CC(=O)N2CCN([C@H]3c4ccc(Cl)cc4CCc4cc(Br)c[n+]([O-])c43)CC2)CC1` [Example 11, (−) 4-[2-[(3-Bromo-8-chloro-6,11-dihydro-5H-benzo[5,6]cyclo-hepta [1,2-b]pyridin-11S-yl)-1-piperazinyl]-2-oxoethyl]-1-piperidinecarboxamide N1-oxide], in series [1] (@ 160 (concentration unit not given)), the FPT percent inhibition worked out at 24% @ 160. The melting point is the temperature, or range, at which the solid turns liquid. `NC(=O)N1CCC(CC(=O)N2CCC([C@@H]3c4ccc(Cl)cc4CCc4cc(Br)c[n+]([O-])c43)CC2)CC1` [Example 12] came in with a melting point of 146.8 to 147.4 °C. The compound also showed an IC50 in series [1] of 0.035 µM. `NC(=O)N1CCC(CC(=O)N2CCC([C@H]3c4ccc(Cl)cc4CCc4cc(Br)c[n+]([O-])c43)CC2)CC1` [Example 13] registered a melting point of 120 to 121 °C. Besides, in series [1], the IC50 came out at 0.174 µM. Regarding `O=C(Cc1cc[n+]([O-])cc1)N1CCC([C@H]2c3ccc(Cl)cc3C=Cc3cc(Br)c[n+]([O-])c32)CC1` [Example 14], the melting point was in the range of 109 to 110 °C. The FPT percent inhibition in series [1] (@ 180 (concentration unit not given)) was 25% @ 180. The compound `O=C(Cc1cc[n+]([O-])cc1)N1CCC([C@@H]2c3ccc(Cl)cc3C=Cc3cc(Br)c[n+]([O-])c32)CC1` [Example 15] gave a melting point of 125.5 to 126.3 °C. In series [1], this compound returned an IC50 of 0.019 µM.

The values are drawn from patent US6576639B1, “Compounds for the inhibition of farnesyl protein transferase” (Schering Corporation, priority 1997, dated 2003).
